BindingDB's records for doi:10.1021/jm9800144 (Smithkline Beecham, 1998)

Biological target: V-ATPase (Gallus gallus)
Assay: Compound was tested for inhibition of V-ATPase from Chicken osteoclasts (cOc)

COC(=O)/C(=C\C=C\c1cc2cc(Cl)c(Cl)cc2[nH]1)OC [(2E,4E)-5-(5,6-Dichloro-1H-indol-2-yl)-2-methoxy-penta-2,4-dienoic acid methyl ester]
IC50: 1900 nM
